The nature of one data set: Behavior in blood serum. To be noted: concentration of 40 μM. In kind it is physicochemical, human.
A short description of data set [1]: pH-dependent UV-vis spectrophotometry (solution speciation, pKa of aqua ligand). Type of data set: physicochemical. To be noted: between pH 3 and 8, no spectral changes. The source says:
However, at pH > ∼8, the spectrum changes considerably (Figure ).
The isosbestic point indicates a single equilibrium process, which is most likely deprotonation of the coordinated aqua ligand in complex 4a. This process was studied in our previous work for similar fac-[Re(CO)3] complexes formed with (N,N)-bearing ligands, and the calculated pK a (H2O) is around 8. […] Similar pK a values in the presence and absence of the chloride ions indicate a low chloride affinity of the aqua complex. Based on these values, the fraction of [Re(CO)3(pth)(H2O)] is 100% at pH = 7.4. The analogous half-sandwich complex [Ru(cym)(pth)(H2O)]^+ was also characterized by high solution stability, and a similarly high pK a value (10.34 (0.2 M KCl)).
For the solution studies, an Agilent Cary 3500 spectrophotometer was utilized to obtain UV–vis spectra in the wavelength range of 200–1100 nm. The path length ( l ) was 1 cm in all cases. The concentrations of the complex were between 10 and 60 μM. For investigation of the effect of chloride ions, the samples contained 60 μM complex and 0–7300 equiv of Cl^–. For HSA-containing samples, complex concentrations were 60 μM, and 0.5 equiv of biomolecule (or 6 equiv of MIM) was added for kinetic studies, respectively. Individual samples contained 0–34 μM HSA. The computer program HypSpec was used to obtain equilibrium constants.

Another data set deals with CCD-19Lu cells. Briefly: MTT cytotoxicity assay, CCD-19Lu. Type of data set: cell-based, human. As to conditions: 72 h incubation, noncancerous fibroblast. The procedure: Its cytotoxicity was determined in the human HeLa cervical cancer cell line, the drug-sensitive Colo205 and its resistant counterpart, the ABCB1 expressing Colo320 colon adenocarcinoma cancer cell lines, using the colorimetric 3-(4,5-dimethylthiazol-2-yl)-2,5-diphenyltetrazolium bromide (MTT) test. To investigate the selectivity toward cancer cells, the noncancerous fibroblast CCD-19Lu cell line was included.
The tested compound was dissolved in DMSO to prepare a 5 mM stock solution, which was diluted in complete culture medium, to study the effect of compounds on cell growth of human colonic adenocarcinoma cell lines. Doxorubicin was used as the positive control. The cells were treated with a trypsin-versene (EDTA) solution. Cells were adjusted to a density of 1 × 10^4 cells in 100 μL of the appropriate culture medium and were added to each well, with the exception of the medium control wells. Except for the semiadherent Colo205 and Colo320 cell lines, the other adherent cell lines were seeded 24 h prior to the assay. Then, stock solutions were diluted in the appropriate culture medium, and 2-fold serial dilutions of compounds were prepared in 100 μL of the medium, horizontally. […] Cell growth was determined by measuring the optical density (OD) at 540/630 nm with a Multiscan EX ELISA reader (Thermo Labsystems, Cheshire, WA). […]

A further data set concerns S. aureus ATCC 25923. Description: Antibacterial MIC assay, S. aureus ATCC 25923. To be noted: 18 h, visual inspection. In kind it is cell-based, Staphylococcus aureus. The procedure:
(§1) The antibacterial effect of the complex was tested against the Gram-negative strain Escherichia coli (E. coli) ATCC 25922, the Gram-positive reference strain Staphylococcus aureus (S. aureus) ATCC 25923, and the methicillin-resistant S. aureus MRSA ATCC 43300 strain. MRSA strains are responsible for several difficult-to-treat hospital-acquired infections.
(§2) The following bacterial strains were used in our experiments: Gram-positive S. aureus American Type Culture Collection (ATCC) 25923 as the methicillin-susceptible reference bacterial strain; methicillin-resistant S. aureus ATCC 43300 (MRSA) strain; E. coli ATCC 25922 as a Gram-negative bacterial strain.
(§3) MIC values of the complexes were determined in 96-well plates based on the Clinical and Laboratory Standard Institute guidelines (CLSI guidelines). The stock solutions of the compound (dissolved in DMSO at 5 mM concentration) were diluted in 100 μL of Mueller Hinton Broth. Then, 10^–4 dilution of an overnight bacterial culture in 100 μL of medium was added to each well, with the exception of the medium control wells.

In data set [2] the test system is S. aureus MRSA ATCC 43300. Description: Antibacterial MIC assay, S. aureus MRSA ATCC 43300. Type of data set: cell-based, Staphylococcus aureus. To be noted: 18 h, visual inspection. The method, then:
as §1, §2, §3

The next data set deals with E. coli ATCC 25922. Briefly: Antibacterial MIC assay, E. coli ATCC 25922. Type of data set: cell-based, Escherichia coli. As to conditions: 18 h, visual inspection. The procedure:
as §1, §2, §3

These results are taken from paper PMC12391994, “Synthesis of a fac-Tricarbonylrhenium(I) Complex with Pyrithione, Its Physicochemical Characterization, and Assessment of Biological Effects” (ACS Omega, 2025).

Consider `N#Cc1ccccc1.[C-]#[O+].[C-]#[O+].[C-]#[O+].[O-]n1ccccc1=S.[Re+]` [complex 4, fac-[Re(CO)3(pth)(benzonitrile)]], for which the “behavior in blood serum” value in the data set “Behavior in blood serum” was “precipitation”. In data set [1], the “integrity of the complex (aqua form) from UV-vis spectra” value is reported as “remains intact”. Also, the half-inhibitory concentration (IC50) (as a rule, the point on the concentration scale where inhibition reaches its midpoint) in the data set with CCD-19Lu cells is 5.47 ± 0.17 µM. Also, the MIC (commonly the lowest concentration found to suppress growth) against S. aureus ATCC 25923 turned out to be 6.25 µM. For the same compound, the “MIC S. aureus MRSA ATCC 43300” value in data set [2] worked out at 12.5 µM. Moreover, in the data set with E. coli ATCC 25922, the “MIC E. coli ATCC 25922” value was 50 µM. The compound further had a maximum nontoxic concentration in the data set on Vero cells of 6.25 µM.
